In ChEMBL document CHEMBL2448688, “Selection and optimization of hits from a high-throughput phenotypic screen against Trypanosoma cruzi. Exported from HEOS 25-Oct-2013. See also related datasets CHEMBL3137440 and CHEMBL3137386”:
≈ marks a conversion by molar mass, not a printed value. Where “and” joins values, the source holds several entries; their conditions need not be identical. Equal entries are not always repeated.

Assays:
[1] = in vitro; conditions: rat, microsomes
[2] = in vitro; conditions: rat, microsomes; remark: listed apart in the source
[3] = in vitro; conditions: rat, hepatocytes
[4] = DNDI: Solubility in phosphate buffer at pH 6.5 determined by nephelometry; conditions: phosphate buffer, pH 6.5, Kinetic
[5] = test system: Trypanosoma cruzi; experiment: (§1) DNDI: Chagas in Vitro; assay type: functional, organism-based, Tulahuen C4 (LacZ)
[6] = in vitro; conditions: mouse, microsomes
[7] = DNDI: Metabolism; assay type: ADME, Microsome; conditions: rat, microsomes
[8] = in vitro; conditions: human, microsomes, t (1 / 2)
[9] = DNDI: Lipophilicity (gLogD) at pH 7.4; conditions: buffer, pH 7.4, logD
[10] = (§2) DNDI: Cytotoxicity in vitro, against rat skeletal myoblast (L-6) cells; conditions: L-6 cells (skeletal myoblasts), IC50
[11] = in vitro; conditions: human, microsomes
[12] = in vitro; conditions: mouse, microsomes; remark: listed apart in the source
[13] = DNDI: Lipophilicity (gLogD) at pH 3; conditions: buffer, pH 3, logD
[14] = DNDI: Solubility in 0.01M HCl at pH 2 determined by nephelometry; conditions: 0.01M HCl, pH 2, Kinetic
[15] = test system: Trypanosoma cruzi; experiment: as §1; assay type: functional, Tulahuen C4 (LacZ)
[16] = in vitro; conditions: human, microsomes, EH
[17] = test system: Trypanosoma brucei rhodesiense; experiment: DNDI: HAT in Vitro; assay type: functional, organism-based, ATCC 30027
[18] = DNDI: Cytotoxicity in vitro, against human lung fibroblast (MRC-5) cells; conditions: MRC-5 cells (lung fibroblasts)
[19] = test system: Leishmania infantum; experiment: DNDI: Leish (macro) in Vitro; assay type: functional, organism-based, MHOM/MA(BE)/67
[20] = molecular target: Cytochrome P450 3A4 (Homo sapiens, UniProt P08684); experiment: DNDI: Human CYP3A4 inhibition determined using 6b-hydroxylation of testosterone
[21] = test system: L6; experiment: as §2; conditions: L-6 cells (skeletal myoblasts)
[22] = molecular target: T1, CYP3A4 (Homo sapiens, UniProt P08684); experiment: DNDI: Human CYP3A4 inhibition at 10 uM determined using 6b-hydroxylation of testosterone; conditions: probe testosterone (6b-hydroxylation)
[23] = molecular target: T1, CYP3A4; experiment: DNDI: Human CYP3A4 inhibition at 1 uM determined using 6b-hydroxylation of testosterone; conditions: probe testosterone (6b-hydroxylation)
[24] = test system: Trypanosoma cruzi; experiment: DNDI: Chagas in vivo at 20 mg/kg, 20 days 2x; assay type: functional, Tulahuen Swiss po
[25] = Trypanosoma cruzi, Tulahuen C4 (LacZ)
[26] = Leishmania infantum, MHOM/MA(BE)/67

T1 sequence (P08684 whole entry): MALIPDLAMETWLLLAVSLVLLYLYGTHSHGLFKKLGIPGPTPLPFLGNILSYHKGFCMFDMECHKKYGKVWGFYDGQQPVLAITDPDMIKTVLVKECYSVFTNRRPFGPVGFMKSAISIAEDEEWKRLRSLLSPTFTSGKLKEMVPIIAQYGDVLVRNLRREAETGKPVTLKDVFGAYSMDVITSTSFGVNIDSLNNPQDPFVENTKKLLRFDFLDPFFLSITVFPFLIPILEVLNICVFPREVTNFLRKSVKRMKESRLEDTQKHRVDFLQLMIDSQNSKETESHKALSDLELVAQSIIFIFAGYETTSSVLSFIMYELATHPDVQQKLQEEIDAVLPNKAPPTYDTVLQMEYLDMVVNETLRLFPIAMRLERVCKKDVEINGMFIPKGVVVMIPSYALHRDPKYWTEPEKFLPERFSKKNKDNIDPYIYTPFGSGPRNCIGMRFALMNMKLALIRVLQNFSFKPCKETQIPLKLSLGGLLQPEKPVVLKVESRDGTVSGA
Chain of Cytochrome P450 3A4 (P08684 whole entry): as above

Structure (SMILES)	solubility kinetic [4] [µg/mL]	IC50 [5, 25] [µM]	half-life [8] [min]	chromatographic logD [9]	microsomal CLint [11] [µL/min/mg]	chromatographic logD [13]	solubility kinetic [14] [µg/mL]	IC90 [15, 25] [µM]	hepatic extraction ratio [16]	IC50 ([17]; Trypanosoma brucei, ATCC 30027) [µM]	IC50 [19]	IC50 [20] [µM]	IC50 [5]	IC90 [15]	inhibition at 10 µM [22] [%]	inhibition at 1 µM [23] [%]	IC50 [10] [µM]	IC50 [18] [µM]	further results
CCN(c1ccccc1)S(=O)(=O)c1ccc(Cl)c(NC(=O)c2ccc3c(c2)CCNC3)c1	14.5 (≈ 30.8 µM)	> 1	5.2	–	334	–	95.9 (≈ 204 µM)	> 1	0.943	0.604	2.16 µM and 8 µM	5.83	–	–	–	–	19.9	29.4	–
CCN(c1ccccc1)S(=O)(=O)c1ccc(NC(=O)CN(C)C2CCN(C)CC2)c(Cl)c1.Cl	> 100	–	10	4.4	169	2.9	> 100	–	–	1.42	11.3 µM and 24.1 µM	–	–	–	–	–	–	40.6	–
CC(C)N(C)CC(O)COc1ccc2cc(Br)ccc2c1 (stereo not drawn)	> 100	> 10	> 250	3.6	< 7	2.6	> 100	8.78	< 0.23	–	6.73 µM and 2.38 µM	> 20	6.4 µM and 5.43 µM and 5.75 µM and 5.78 µM and 6.57 µM	8.95 µM and 8.79 µM and > 10 µM	–	–	19.2	> 64	IC50 [17]: 0.507 µM and 1.55 µM; IC50 [21]: 34.8 µM
O=C(Nc1cc(C(F)(F)F)ccc1-n1ccnc1)c1cnc(-c2ccccc2)nc1	–	> 0.1	–	–	–	–	–	> 0.1	–	> 10	–	–	–	–	–	–	> 100	> 64	IC50 [19, 26]: > 64 µM
CS(=O)(=O)N(Cc1cnc[nH]1)c1ccc(-c2nc3ccccc3s2)cc1	–	–	32	2.3	55	1.6	> 100	–	0.68	–	–	1.5	–	–	85	48	–	–	PCR cure rate [24]: 0%; Parasitemia clearance after immunosuppression [24]: 0%; Parasitemia clearance after treatment [24]: 100%
O=C(Nc1ccccc1-n1ccnc1)c1cnc(-c2ccccc2)nc1	–	0.063	99	2.4	18	1.3	> 100	0.148	0.4	–	–	> 10	–	–	27	–	> 100	–	–
CN(CC(O)COc1ccc2cc(Br)ccc2c1)C1CCCCC1 (stereo not drawn)	> 100	4.55	132	3.6	13	2.6	> 100	8.48	0.34	–	1.68 µM and 2 µM	> 10	4.64 µM	7.84 µM	11	5	16.6	> 64	IC50 [19, 26]: 1.26 µM; IC50 [21]: 17 µM
CN1CCCC(CNCC(O)COc2ccc3cc(Br)ccc3c2)C1 (stereo not drawn)	–	5.56	–	–	–	–	–	> 10	–	7.12	2.03 µM and 1.7 µM and 0.54 µM	–	–	–	–	–	19	–	–
Cc1ccc(-n2ccnc2)c(NC(=O)c2cnc(-c3ccccc3)nc2)c1	–	0.023	19	2.7	93	1.6	> 100	0.151	0.78	–	–	> 10	–	–	49	15	> 100	–	–

Continued by falling IC50 [5, 25], values first:

solubility kinetic [4] [µg/mL]	IC50 [5, 25] [µM]	half-life [8] [min]	chromatographic logD [9]	microsomal CLint [11] [µL/min/mg]	chromatographic logD [13]	solubility kinetic [14] [µg/mL]	IC90 [15, 25] [µM]	hepatic extraction ratio [16]	IC50 ([17]; Trypanosoma brucei, ATCC 30027) [µM]	IC50 [19]	IC50 [20] [µM]	IC50 [5]	IC90 [15]	inhibition at 10 µM [22] [%]	inhibition at 1 µM [23] [%]	Structure (SMILES)	IC50 [10] [µM]	IC50 [18] [µM]	further results
< 1.6	0.0204	58	3.9	30	3.1	> 100	0.065	–	–	–	–	–	–	–	–	CO/N=C(\C)c1ccc(-n2ccnc2)c(NC(=O)c2ccc(-c3ccccc3)cc2)c1	> 100	–	half-life [1]: 40 min; microsomal CLint [2]: 43 µL/min/mg; CLhep predicted [3]: 24.5 mL/min/kg; microsomal CLint [6]: 31 µL/min/mg; CLblood [7]: 35 mL/min/kg; half-life [12]: 56 min
3.1 (≈ 9.27 µM)	0.0153	> 250	3.4	< 7	2.1	> 100	0.156	< 0.23	–	–	4	–	–	80	37	CCN(Cc1c[nH]cn1)c1ccc(-c2nc3ccccc3s2)cc1	36	–	PCR cure rate [24]: 0%; Parasitemia clearance after immunosuppression [24]: 0%; Parasitemia clearance after treatment [24]: 80%
–	0.013	66	3.3	26	2.5	> 100	0.0291	–	–	–	–	0.009 µM	0.0245 µM	–	–	CO/N=C(\C)c1ccc(-n2ccnc2)c(NC(=O)c2ccc(-c3ccccc3)nc2)c1	> 100	–	half-life [1]: 36 min; microsomal CLint [2]: 48 µL/min/mg; microsomal CLint [6]: 33 µL/min/mg; half-life [12]: 53 min
3.1 (≈ 7.52 µM)	0.0062	15	3.7	117	2.8	> 50	0.769	0.82	–	–	< 1	0.0053 µM	0.639 µM	91.9	75.9	CO/N=C(\C)c1ccc(-n2ccnc2)c(NC(=O)c2cncc(-c3ccccc3)n2)c1	4.16	–	IC50 [21]: 6.36 µM
6.3 (≈ 15.1 µM)	0.00293	85	2.7	20	1.8	> 100	0.0194	–	> 10	–	–	0.0055 µM	0.017 µM	–	–	CO/N=C(\C)c1ccc(-n2ccnc2)c(NC(=O)c2cnc(-c3ccccn3)s2)c1	68	–	microsomal CLint [6]: 75 µL/min/mg; IC50 [21]: > 100 µM; half-life [12]: 23 min
< 1.6	0.00253	58	3.9	30	2.6	25 (≈ 60.6 µM)	0.0089	–	–	–	–	–	–	–	–	CO/N=C(\C)c1ccc(-n2ccnc2)c(NC(=O)c2cnc(-c3ccccc3)cn2)c1	58.7	–	half-life [1]: 35 min; microsomal CLint [2]: 50 µL/min/mg; CLhep predicted [3]: 32.3 mL/min/kg; microsomal CLint [6]: 29 µL/min/mg; CLblood [7]: 38 mL/min/kg; half-life [12]: 61 min
–	0.0022	61	2.3	28	1.6	> 100	0.0084	0.52	–	–	< 1	0.0026 µM	0.0091 µM	86.1	51.6	CS(=O)(=O)N(Cc1c[nH]cn1)c1ccc(-c2ccc(F)cc2)cc1F	> 100	–	–
